Assay results as given in patent US10358453B2, “Antiviral compounds” (priority 2015, dated 2019).

Tests used:
[1] = Cytotoxicity determination (CCK-8, without addition of virus); type: cell-based; conditions: human, HEp-2 cells (uninfected), no virus, Table C = greater than 100 μM, Table D = equal to or less than 100 μM and greater than 10 μM
Description: CPE reduction assays are performed as described by Sidwell and Huffman et al., Appl. Microbiol. (1971) 22(5):797-801 with slight modifications. HEp-2 cells (ATCC#, CCL-23) are seeded at a density of 1,500 cells/30 μL/well into the 384-well cell plate(s) (Corning#3701) one day prior to the assay. Compounds are added into 384-well cell plates by Labcyte POD 810 Plate Assembler system. Each of the test compounds is provided to duplicate wells of a 384-well cell plate at final concentrations starting from 100 μM or 1 μM using 1/3 stepwise dilutions for 9 points. Quick-thaw Respiratory Syncytial Virus (RSV) long strain (ATCC#VR-26) stock in a 37° C. water bath. Place on ice until ready to use. Viruses are diluted to the concentration of 100 TCID50/30 μL with medium and 30 μl diluted RSV are added into related wells of 384-well cell plates. For each plate, sixteen wells are set aside as uninfected, untreated cell controls (CC), and nine wells per test plate receive virus only as a control for virus replication (VC). The final DMSO concentration of all wells is 1%. Place the plates at 37° C., 5% CO2 for 5 days.
In order to determine the compound cytotoxicity, in parallel, each of the compounds is applied to duplicate wells in a 384-well cell plate at serial final concentrations starting from 100 μM using ½ stepwise dilutions for 7 points without addition of virus. Incubate the cells at 37° C., 5% CO2 for 5 days. Add 6 μL CCK-8 into each well and incubate in a CO2 incubator at 37° C. for 3-4 h. Read the plates to obtain the optical densities which are used to calculate 50% cytotoxicity concentration (CC50).

[2] = test system: RSV subgenomic replicon 395 HeLa and APC126; test: RSV subgenomic replicon assay (Renilla luciferase); type: cell-based; conditions: RSV replicon cells (395 HeLa 7 days or APC126 3 days), Table G = less than 1 μM, Table H = equal to or higher than 1 μM and less than 50 μM
Source text: The RSV subgenomic replicon 395 HeLa and APC126 were licensed from Apath (Brooklyn, N.Y.) and were originally developed by Dr. Mark Meeples of Center for Vaccines & Immunity, the Research Institute at Nationwide Children's Hospital in Columbus, Ohio. To generate subgenomic RSV replicon, three glycoprotein genes, those for SH, G, and F, from a full-length recombinant GFP-expressing (rg) RSV antigenomic cDNA were deleted. In their place, a blasticidin S deaminase (bsd) gene was inserted. Through multiple steps, the RSV replicon was established in HeLa cells (395 Hela) or BHK cells (APC126). Both 395 HeLa and APC126 cells were cultured in Dulbecco's Modified Eagle Medium (DMEM) containing 4500 mg/L D-glucose, L-glutamine, and 110 mg/L sodium pyruvate (Invitrogen, Cat. #11995-040). The medium was further supplemented with 10% (v/v) fetal bovine serum (FBS) (Mediatech, Cat. #35-010-CV), 1% (v/v) penicillin/streptomycin (Mediatech, Cat. #30-002-CI), and 10 μg/mL of Blasticidin (BSD) (Invivogen, Cat. code ant-bl-1). Cells were maintained at 37° C. in a humidified 5% CO2 atmosphere.
Determination of 50% inhibitory concentration (EC50), 90% inhibitory concentration (EC90) and 50% cytotoxic concentration (CC50) in RSV replicon cells were performed by the following procedure. On the first day, 5000 RSV replicon cells per well were plated in a 96-well plate. On the following day, compounds to be tested were solubilized in 100% DMSO to 100X the desired final testing concentration. Each compound was serially diluted (1:3) up to 9 distinct concentrations. Compounds in 100% DMSO were reduced to 10% (v/v) DMSO by diluting 1:10 in cell culture media. A 10 μL sample of the compounds diluted to 10% (v/v) DMSO with cell culture media was used to treat the RSV replicon cells in 96-well format. The final DMSO concentration was 1% (v/v). Cells were incubated with compounds for 7 days (for 395Hela) or 3 days (for APC126) at 37° C. in a 5% CO2 atmosphere. In each assay, positive control that was previously characterized in the RSV replicon assay was included.
The Renilla Luciferase Assay System (Promega, Cat. #E2820) was used to measure anti-RSV replicon activity. Assay plates were set up as stated above. Luminescence was recorded using a Perkin Elmer multilabel counter Victor3V. EC50, the concentration of the drug required for reducing RSV replicon RNA by 50% in relation to the untreated cell control value, was calculated from the plot of percentage reductions of the […] against the drug concentrations using the Microsoft Excel forecast function.

recombinant RSV complex = recombinant RSV complex (Human respiratory syncytial virus A, UniProt P28887); test: RSV polymerase inhibition assay; type: biochemical; conditions: 10 nM recombinant RSV complex, 2 h at 30° C.; Table E = <1 μM, Table F = <50 μM; read-out: IC50
Description: Standard RSV polymerase assays were conducted in the presence of 10 nM recombinant RSV complex in a reaction buffer containing Tris-HCl pH7.5, 6 mM MgCl2, and other additives and substrates including RNA oligonucleotides and radionucleotides. Standard reactions were incubated in 96-well plate format for 2 h at 30° C., in the presence of increasing concentration of inhibitor. The reaction was stopped with 90 μL of 0.1M EDTA, and the reaction product was transferred to a “reading” 96-well plate. After washing of the plate, radiolabeled RNA products were detected according to standard procedures with a Trilux Topcount scintillation counter. The compound concentration at which the enzyme-catalyzed rate was reduced by 50% (IC50) was calculated by fitting the data to a non-linear regression (sigmoidal).

[3] = human respiratory syncytial virus

Sequence of recombinant RSV complex (P28887 whole entry): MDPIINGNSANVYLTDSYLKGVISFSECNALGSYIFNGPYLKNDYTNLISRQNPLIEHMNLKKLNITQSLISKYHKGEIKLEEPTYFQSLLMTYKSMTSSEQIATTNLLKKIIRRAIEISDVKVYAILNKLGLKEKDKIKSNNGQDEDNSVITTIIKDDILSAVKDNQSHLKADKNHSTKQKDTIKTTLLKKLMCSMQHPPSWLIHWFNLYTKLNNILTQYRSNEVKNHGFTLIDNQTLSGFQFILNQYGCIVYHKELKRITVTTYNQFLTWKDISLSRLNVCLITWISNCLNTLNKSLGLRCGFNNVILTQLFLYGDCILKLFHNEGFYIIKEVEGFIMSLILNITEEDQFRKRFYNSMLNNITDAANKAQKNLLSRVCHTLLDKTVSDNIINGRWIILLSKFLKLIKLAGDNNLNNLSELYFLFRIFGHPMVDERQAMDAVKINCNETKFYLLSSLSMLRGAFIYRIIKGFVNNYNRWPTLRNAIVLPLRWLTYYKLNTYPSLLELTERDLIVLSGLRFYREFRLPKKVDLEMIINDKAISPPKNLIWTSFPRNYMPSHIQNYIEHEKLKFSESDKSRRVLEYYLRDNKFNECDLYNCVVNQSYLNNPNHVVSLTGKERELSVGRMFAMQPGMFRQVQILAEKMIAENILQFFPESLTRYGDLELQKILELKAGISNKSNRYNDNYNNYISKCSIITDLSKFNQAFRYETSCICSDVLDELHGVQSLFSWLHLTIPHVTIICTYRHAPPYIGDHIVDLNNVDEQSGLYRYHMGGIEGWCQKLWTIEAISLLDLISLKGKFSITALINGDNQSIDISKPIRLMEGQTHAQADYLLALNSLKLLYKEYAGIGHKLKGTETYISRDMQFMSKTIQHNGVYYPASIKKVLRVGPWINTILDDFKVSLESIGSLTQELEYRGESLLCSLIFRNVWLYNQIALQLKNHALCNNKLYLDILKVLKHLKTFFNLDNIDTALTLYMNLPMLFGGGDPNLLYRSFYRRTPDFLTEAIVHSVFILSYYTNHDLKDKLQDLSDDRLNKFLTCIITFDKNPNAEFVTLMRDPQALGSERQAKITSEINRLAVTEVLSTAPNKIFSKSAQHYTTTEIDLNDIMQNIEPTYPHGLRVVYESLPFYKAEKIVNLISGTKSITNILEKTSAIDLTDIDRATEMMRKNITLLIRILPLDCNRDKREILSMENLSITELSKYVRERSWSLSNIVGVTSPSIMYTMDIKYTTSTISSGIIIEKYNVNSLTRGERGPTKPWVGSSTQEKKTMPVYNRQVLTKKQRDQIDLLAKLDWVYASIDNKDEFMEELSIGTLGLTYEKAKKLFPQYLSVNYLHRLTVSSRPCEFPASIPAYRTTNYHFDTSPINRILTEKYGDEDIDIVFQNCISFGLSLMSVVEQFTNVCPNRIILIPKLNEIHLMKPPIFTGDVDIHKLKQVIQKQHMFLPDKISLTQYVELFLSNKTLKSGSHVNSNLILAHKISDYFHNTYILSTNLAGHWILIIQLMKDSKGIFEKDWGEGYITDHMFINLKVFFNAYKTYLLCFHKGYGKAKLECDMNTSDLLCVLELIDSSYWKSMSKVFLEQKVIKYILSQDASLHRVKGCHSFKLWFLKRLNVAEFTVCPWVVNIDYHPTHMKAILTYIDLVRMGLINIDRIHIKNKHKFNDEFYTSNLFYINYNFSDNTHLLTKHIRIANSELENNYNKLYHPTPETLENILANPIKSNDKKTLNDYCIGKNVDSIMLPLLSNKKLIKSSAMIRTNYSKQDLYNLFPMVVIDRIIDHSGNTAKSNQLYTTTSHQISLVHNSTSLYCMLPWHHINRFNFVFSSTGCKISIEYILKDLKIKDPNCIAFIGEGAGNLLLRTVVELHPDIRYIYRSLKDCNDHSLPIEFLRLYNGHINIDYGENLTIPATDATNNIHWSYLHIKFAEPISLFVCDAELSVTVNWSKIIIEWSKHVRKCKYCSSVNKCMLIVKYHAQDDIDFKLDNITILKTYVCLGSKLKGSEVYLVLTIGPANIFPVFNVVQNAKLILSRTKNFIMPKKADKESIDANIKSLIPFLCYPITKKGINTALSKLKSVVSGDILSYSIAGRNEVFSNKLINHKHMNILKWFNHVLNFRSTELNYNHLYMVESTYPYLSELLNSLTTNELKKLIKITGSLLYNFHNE
Sequence of recombinant RSV complex (P03421 whole entry, further chain): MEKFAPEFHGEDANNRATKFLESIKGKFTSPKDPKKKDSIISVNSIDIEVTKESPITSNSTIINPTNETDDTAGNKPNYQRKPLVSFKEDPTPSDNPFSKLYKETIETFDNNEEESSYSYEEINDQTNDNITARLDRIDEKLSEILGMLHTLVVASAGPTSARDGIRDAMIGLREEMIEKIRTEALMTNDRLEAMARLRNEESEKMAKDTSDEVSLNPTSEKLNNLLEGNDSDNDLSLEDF

SMILES | CC50 at 5 days [1] | EC50 [2, 3] | IC50 (recombinant RSV complex) | EC50 [2]
COc1cc(C(=O)NC[C@@](O)(c2cc([C@]3(C)CCN3)cc(-c3ccc(F)cc3)n2)C(F)(F)F)ccc1OC[C@@H](C)O (racemic) [Compound 14] | 10000 to 100000 nM | < 1000 nM | < 1000 nM | –
COc1cc(C(=O)NC[C@@](O)(c2cc(C3(C)CCN3)cc(-c3ccc(F)cc3)n2)C(F)(F)F)ccc1OC[C@@H](C)O (single isomer, unassigned) [Compound 15] | 10000 to 100000 nM | < 1000 nM | < 1000 nM | –
COc1cc(C(=O)NC[C@@](O)(c2cc3c(c(-c4ccc(F)cc4)n2)NC[C@@]3(C)N)C(F)(F)F)ccc1OCCO (single isomer, unassigned) [Compound 51] | > 100000 nM | < 1000 nM | < 1000 nM | –
COc1cc(C(=O)NC[C@](O)(c2cc3c(c(-c4ccc(F)cc4)n2)NC[C@]3(C)N)C(F)(F)F)ccc1OCCO (single isomer, unassigned) [Compound 53] | – | – | < 1000 nM | –
COc1cc(C(=O)NCC(O)(c2cc3c(c(-c4ccc(F)cc4)n2)OCCC3(C)N)C(F)(F)F)ccc1OCC(C)O (single isomer, unassigned) [Compound 86] | 10000 to 100000 nM | 1000 to 50000 nM | < 1000 nM | –
COc1cc(C(=O)NC[C@](O)(c2cc3c(c(-c4ccc(F)cc4)n2)OCC[C@]3(C)N)C(F)(F)F)ccc1OC[C@@H](C)O (single isomer, unassigned) [Compound 87] | > 100000 nM | < 1000 nM | < 1000 nM | –
COc1cc(C(=O)NCC(O)(c2cc3c(c(-c4ccc(F)cc4)n2)OCC3(C)N)C(F)(F)F)cc2c1NC(=O)C2 (centres unmarked) [Compound 9] | – | – | < 1000 nM | –
COc1cc(C(=O)NCC(O)(c2cc3c(c(-c4ccc(F)cc4)n2)OC[C@@]3(C)N)C(F)(F)F)cc2c1OC(=O)NC2 (some centres unmarked) [Compound 17] | – | – | < 1000 nM | –
CC1(N)COc2c1cc(C(O)(CNC(=O)c1ccc(OC3CC3)c(OC3CC3)c1)C(F)(F)F)nc2-c1ccc(F)cc1 (centres unmarked) [Compound 25] | 10000 to 100000 nM | – | < 1000 nM | –
COc1cc(C(=O)NCC(O)(c2cc3c(c(-c4ccccc4)n2)OCC3(C)N)C(F)(F)F)ccc1OCCO (centres unmarked) [Compound 27] | 10000 to 100000 nM | – | < 1000 nM | –
COc1cc(C(=O)NCC(O)(c2cc3c(c(-c4ccc(F)cc4)n2)OCC3(C)N)C(F)(F)F)ccc1C#CCO (centres unmarked) [Compound 28] | – | < 1000 nM | < 1000 nM | –
CC1(N)COc2c1cc(C(O)(CNC(=O)c1cc3c(c(OC4CC4)c1)OC(=O)NC3)C(F)(F)F)nc2-c1ccc(F)cc1 (centres unmarked) [Compound 32] | – | – | < 1000 nM | –
CC1(N)COc2c1cc(C(O)(CNC(=O)c1ccc3c(c1)OCCN3CCO)C(F)(F)F)nc2-c1ccc(F)cc1 (centres unmarked) [Compound 33] | – | < 1000 nM | < 1000 nM | –
CC1(N)COc2c1cc(C(O)(CNC(=O)c1ccc(OC3CC3)c(OCCO)c1)C(F)(F)F)nc2-c1ccc(F)cc1 (centres unmarked) [Compound 35] | – | – | < 1000 nM | –
COc1ccc(C(=O)NCC(N)(c2cc(C(C)(C)N)cc(-c3ccc(F)cc3)n2)C(F)(F)F)cc1OCCO (centres unmarked) [Compound 42] | – | – | < 1000 nM | –
CC1(N)COc2c1cc(C(O)(CNC(=O)c1cnc(OCCO)cc1O)C(F)(F)F)nc2-c1ccc(F)cc1 (centres unmarked) [Compound 46] | > 100000 nM | – | – | –
COc1nc(C(=O)NCC(O)(c2cc3c(c(-c4ccc(F)cc4)n2)OCC3(C)N)C(F)(F)F)cc2oc(=O)[nH]c12 (centres unmarked) [Compound 48] | 10000 to 100000 nM | – | < 50000 nM | –

SMILES | CC50 at 5 days [1] | EC50 [2, 3] | IC50 (recombinant RSV complex) | EC50 [2]
COc1cc(C(=O)NCC(O)(c2nc(-c3ccc(F)cc3)c3ccccn23)C(F)(F)F)ccc1OCCO (centres unmarked) [Compound 54] | – | – | < 50000 nM | –
CC(C)(N)c1cc(-c2ccc(F)cc2)nc([C@](O)(CNC(=O)c2ccc(OCCO)c(OC3CC3)c2)C(F)(F)F)c1 [Compound 56] | – | – | < 1000 nM | –
CC(C)(N)c1cc(-c2ccc(F)cc2)nc([C@](O)(CNC(=O)c2ccc(OC3CC3)c(OCCO)c2)C(F)(F)F)c1 [Compound 58] | – | – | < 1000 nM | –
COc1cc(C(=O)NC[C@@](O)(c2cc3c(c(-c4ccc(F)cc4)n2)OC[C@@]3(C)N)C(F)(F)F)ncc1OCCO [Compound 77] | – | – | < 1000 nM | –
COc1cc(C(=O)NCC(O)(c2cn(C(C)(C)CN)cc(-c3ccc(F)cc3)c2=O)C(F)(F)F)ccc1OCCO (centres unmarked) [Compound 78] | – | – | < 50000 nM | –
COc1cc(C(=O)NC[C@@](O)(c2cc3c(c(-c4ccc(F)cc4)n2)OC[C@@]3(C)N)C(F)(F)F)cc2ccn(CCO)c12 [Compound 89] | – | – | < 1000 nM | –
COc1cc(C(=O)NC[C@@](O)(c2cc3c(c(-c4ccc(F)cc4)n2)OC[C@@]3(C)N)C(F)(F)F)cc2c1NCCC2 [Compound 96] | – | < 1000 nM | < 1000 nM | –
COc1nc(C(=O)NC[C@@](O)(c2cc3c(c(-c4ccc(F)cc4)n2)NC[C@@]3(C)N)C(F)(F)F)cc2c1NC(=O)C2 [Compound 99] | – | – | < 1000 nM | –
COc1cc(C(=O)NC[C@@](O)(c2cc3c(c(-c4ccc(F)cc4)n2)NCC[C@]3(C)N)C(F)(F)F)ccc1OC[C@@H](C)O [Compound 100] | – | – | < 50000 nM | –
COc1cc(C(=O)NCC(O)(c2cc3c(c(-c4ccc(F)cc4)n2)OCC32CCN2)C(F)(F)F)ccc1OCCO (centres unmarked) [Compound 109] | 10000 to 100000 nM | – | < 1000 nM | –
C[C@@]1(N)COc2c1cc([C@](O)(CNC(=O)c1ccc(Cl)s1)C(F)(F)F)nc2-c1ccc(F)cc1 [Compound 110] | 10000 to 100000 nM | – | – | –
COc1cc(C(=O)NC[C@@](O)(c2cc3c(C)c[nH]c3c(-c3ccc(F)cc3)n2)C(F)(F)F)ccc1OCCO [Compound 111] | 10000 to 100000 nM | – | < 1000 nM | –
COc1cc(C(=O)NCC(O)(c2cc(C3(C)CCNC3)cc(-c3ccc(F)cc3)n2)C(F)(F)F)ccc1OCCO (centres unmarked) [Compound 116] | 10000 to 100000 nM | – | < 1000 nM | –
C[C@@]1(N)CNc2c1cc([C@](O)(CNC(=O)c1ccc(OC3CC3)c(OC3CC3)c1)C(F)(F)F)nc2-c1ccc(F)cc1 [Compound 126] | – | – | < 1000 nM | < 1000 nM
CC[C@]1(N)COc2c1cc([C@](O)(CNC(=O)c1ccc(OC[C@@H](C)O)c(OC)c1)C(F)(F)F)nc2-c1ccc(F)cc1 [Compound 133] | – | – | < 1000 nM | –
COc1cc(C(=O)NCC(O)(c2nc(-c3ccc(F)cc3)n3ccccc23)C(F)(F)F)ccc1OCCO (centres unmarked) [Compound 137] | – | – | < 1000 nM | –
